Experimental data from patent US20050060764A1, “Mouse model for bone metabolism” (priority 2003, published 2005).
Strand notation (5' to 3'): a small letter for the sugar, then the base; units joined by * are phosphorothioate-linked, units joined directly phosphodiester-linked; [ ] holds rarer units or linkages, { } end groups; capitals alone tell only the bases. e = 2'-O-(2-methoxyethyl) (MOE); [5mC] = 5-methylcytosine; d = 2'-deoxy (DNA)

Tests used:
[1] = system: mouse RANKL mRNA; assay: Antisense inhibition of mouse RANKL mRNA levels in C2C12 cells, quantitative real-time PCR (Table 2); format: cell-based; set-up: concentration or dose not given beside the values; conditions: averages from three experiments
How it was run: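 C2C12 cells seeded at ~10,000 cells/cm^2, treated with antisense oligonucleotides (all C as 5-methylcytidine) in triplicate and harvested 16-24 h later. Mouse RANKL mRNA quantified by real-time RT-PCR with a FAM/TAMRA probe, with mouse GAPDH (JOE/TAMRA probe) as reference.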

[2] = system: rat RANKL mRNA; assay: Antisense inhibition of rat RANKL mRNA levels in UMR-106 cells, quantitative real-time PCR (Table 3); format: cell-based; set-up: concentration or dose not given beside the values; conditions: averages from three experiments
How it was run: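 UMR-106 cells transfected with antisense oligonucleotides (5-methylcytidine throughout) in triplicate, harvested 16-24 h after treatment. RANKL mRNA quantified by real-time RT-PCR with a FAM/TAMRA probe, using rat GAPDH (JOE/TAMRA probe) as the reference.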

| Substance | % INHIB (inhibition of mouse RANKL mRNA levels) [1] | % INHIB (inhibition of rat RANKL mRNA levels) [2] |
| --- | --- | --- |
| agcaaatgttggcgtacagg (antisense eA*eG*e[5mC]*eA*eA*dA*dT*dG*dT*dT*dG*dG*d[5mC]*dG*dT*eA*e[5mC]*eA*eG*eG) [ISIS 180807, 2′-MOE gapmer targeted to mouse and rat RANKL] | at least 40% | at least 40% |
| gctcgaaagtacaggaacag (antisense eG*e[5mC]*eT*e[5mC]*eG*dA*dA*dA*dG*dT*dA*d[5mC]*dA*dG*dG*eA*eA*e[5mC]*eA*eG) [ISIS 180802, 2′-MOE gapmer targeted to mouse and rat RANKL] | at least 40% | at least 40% |
| 180809 (antisense eG*eG*eA*eT*eT*dT*dT*dG*dA*dT*dG*d[5mC]*dT*dG*dG*eT*eT*eT*eT*eA) [compound 180809] | 53% | 57% |
| 180807 (antisense eA*eG*e[5mC]*eA*eA*dA*dT*dG*dT*dT*dG*dG*d[5mC]*dG*dT*eA*e[5mC]*eA*eG*eG) [compound 180807] | 74% | 48% |
| 180813 (antisense eA*eT*eG*eT*eT*d[5mC]*d[5mC]*dA*d[5mC]*dG*dA*dA*dA*dT*dG*eA*eG*eT*e[5mC]*eT) [compound 180813] | 48% |  |
| 180803 (antisense eT*e[5mC]*eT*eT*e[5mC]*dA*d[5mC]*dT*d[5mC]*dT*d[5mC]*d[5mC]*dA*dG*dA*eG*eT*e[5mC]*eG*eA) [compound 180803] | 55% |  |
| 180800 (antisense eA*e[5mC]*eA*eT*eG*dG*dA*dG*d[5mC]*dG*dG*dG*dA*dG*dG*e[5mC]*eG*eG*e[5mC]*eG) [compound 180800] | 54% |  |
| 180817 (antisense eG*e[5mC]*eA*eT*e[5mC]*dG*dG*dA*dA*dT*dA*d[5mC]*d[5mC]*dT*d[5mC]*eT*e[5mC]*e[5mC]*e[5mC]*eA) [compound 180817] | 51% |  |
| gccctgctccgcgatcgttc (antisense eG*e[5mC]*e[5mC]*e[5mC]*eT*dG*d[5mC]*dT*d[5mC]*d[5mC]*dG*d[5mC]*dG*dA*dT*e[5mC]*eG*eT*eT*e[5mC]) [ISIS 180793, 2′-MOE gapmer targeted to mouse RANKL] | at least 40% |  |
| 180802 (antisense eG*e[5mC]*eT*e[5mC]*eG*dA*dA*dA*dG*dT*dA*d[5mC]*dA*dG*dG*eA*eA*e[5mC]*eA*eG) [compound 180802] | 79% | 40% |
| ccgccgagcagactccgcca (antisense e[5mC]*e[5mC]*eG*e[5mC]*e[5mC]*dG*dA*dG*d[5mC]*dA*dG*dA*d[5mC]*dT*d[5mC]*e[5mC]*eG*e[5mC]*e[5mC]*eA) [ISIS 180791, 2′-MOE gapmer targeted to mouse RANKL] | at least 40% |  |
| 180790 (antisense eA*eG*e[5mC]*eA*eG*dA*d[5mC]*dT*d[5mC]*d[5mC]*dG*d[5mC]*d[5mC]*dA*d[5mC]*eG*eG*e[5mC]*e[5mC]*e[5mC]) [compound 180790] | 59% |  |
| tcagtggcacatgtccaggg (antisense eT*e[5mC]*eA*eG*eT*dG*dG*d[5mC]*dA*d[5mC]*dA*dT*dG*dT*d[5mC]*e[5mC]*eA*eG*eG*eG) [ISIS 180818, 2′-MOE gapmer targeted to mouse RANKL] | at least 40% |  |
| 180795 (antisense eG*e[5mC]*eT*eG*eG*d[5mC]*d[5mC]*d[5mC]*dG*dG*d[5mC]*dG*d[5mC]*dA*dT*eG*eG*e[5mC]*eG*e[5mC]) [compound 180795] | 62% |  |
| gcatcggaatacctctccca (antisense eG*e[5mC]*eA*eT*e[5mC]*dG*dG*dA*dA*dT*dA*d[5mC]*d[5mC]*dT*d[5mC]*eT*e[5mC]*e[5mC]*e[5mC]*eA) [ISIS 180817, 2′-MOE gapmer targeted to mouse RANKL] | at least 40% |  |
| 180793 (antisense eG*e[5mC]*e[5mC]*e[5mC]*eT*dG*d[5mC]*dT*d[5mC]*d[5mC]*dG*d[5mC]*dG*dA*dT*e[5mC]*eG*eT*eT*e[5mC]) [compound 180793] | 74% |  |
| agctgaagatagtctgtagg (antisense eA*eG*e[5mC]*eT*eG*dA*dA*dG*dA*dT*dA*dG*dT*d[5mC]*dT*eG*eT*eA*eG*eG) [ISIS 180808, 2′-MOE gapmer targeted to mouse RANKL] | at least 40% |  |
| agctacgagtaccttcaggg (antisense eA*eG*e[5mC]*eT*eA*d[5mC]*dG*dA*dG*dT*dA*d[5mC]*d[5mC]*dT*dT*e[5mC]*eA*eG*eG*eG) [ISIS 180827, 2′-MOE gapmer targeted to mouse RANKL] | at least 40% |  |
| gctggcccggcgcatggcgc (antisense eG*e[5mC]*eT*eG*eG*d[5mC]*d[5mC]*d[5mC]*dG*dG*d[5mC]*dG*d[5mC]*dA*dT*eG*eG*e[5mC]*eG*e[5mC]) [ISIS 180795, 2′-MOE gapmer targeted to mouse RANKL] | at least 40% |  |
| 180799 (antisense e[5mC]*eG*eG*eG*eA*dG*dG*d[5mC]*dG*dG*d[5mC]*dG*dG*dG*dT*eG*eG*e[5mC]*eG*eG) [compound 180799] | 52% |  |
| 180801 (antisense eA*eA*e[5mC]*eA*eT*dG*dG*dA*dG*d[5mC]*dG*dG*dG*dA*dG*eG*e[5mC]*eG*eG*e[5mC]) [compound 180801] | 40% |  |
| 180810 (antisense eT*e[5mC]*eA*eG*eA*dA*dT*dT*dG*d[5mC]*d[5mC]*d[5mC]*dG*dA*d[5mC]*e[5mC]*eA*eG*eT*eT) [compound 180810] | 83% |  |
| ggattttgatgctggtttta (antisense eG*eG*eA*eT*eT*dT*dT*dG*dA*dT*dG*d[5mC]*dT*dG*dG*eT*eT*eT*eT*eA) [ISIS 180809, 2′-MOE gapmer targeted to mouse and rat RANKL] | at least 40% | at least 40% |
